Source: PMC7529580, “Modified heptapeptide from tau binds both tubulin and microtubules” (Thoracic Cancer, 2020)
Entries after “also recorded” stand apart in the source; their conditions may differ. Read-outs that look alike come from different tables or passages of the source. Each block holds one molecule with its values, some of them ahead of it. Non-standard residues stand in square brackets, D forms with d. No end group written: not given here. *: point of attachment. FITC = O=C1OC2(c3ccc(O)cc3Oc3cc(O)ccc32)c2ccc(NC(=S)*)cc21; Ahx = NCCCCCC(=O)O

Assays:
microtubules = test system: microtubules; set-up: method as in 2 sources, ref 26 = [26]; PMID 9190213; doi:10.1091/mbc.8.2.353; 26 Goode BL , Denis PE , Panda D et al Functional interactions between the proline‐rich and repeat regions of tau enhance microtubule binding and assembly . Mol Biol Cell 1997; 8 : 353 – 65 . 9190213 ||| ref 27 = [27]; PMID 19186939; doi:10.1021/bm801224q; 27 Cao B , Mao C . Identification of microtubule‐binding domains on microtubule‐associated proteins by major coat phage display technique . Biomacromolecules 2009; 10 : 555 – 64 . 19186939 10.1021/bm; conditions: cited from earlier work
HeLa cells = experiment: Living cell assay: entry of peptide into cells; format: cell-based; conditions: 15 μM peptide, 30 minutes, Hoechst 33258, fluorescence microscope
Protocol: (§1) HeLa cells were cultured in Dulbecco's modified Eagle's medium supplemented with 10% fetal bovine serum and maintained at 37°C in a humidified 5% CO2 environment. The peptide was added into the Hela cells, and incubated for 30 minutes. The nuclei were stained with Hoechst 33258 (Beyotime). Cells were imaged with a fluorescence microscope (Leica, Germany).  Figure 4 Examination of the peptide in tracing microtubules in living cells. HeLa cells were treated with 15 μM of the peptide or control peptide, together with Hoechst 33258, and 30 minutes later, the cells were imaged with a fluorescence microscope. Scale bar: 5 μm.

tubulin dimers = experiment: Microscale thermophoresis affinity determination; format: binding; conditions: 1 μM peptide, series dilution of tubulin
Protocol: All microscale thermophoresis measurements were performed using Monolith NTTM hydrophobic capillaries and a Monolith NT.115 instrument (NanoTemper) according to the manufacturer's instructions. The peptide was prepared with varying concentrations for pretest to ensure final proper concentration. The fluorescence intensity value should be more than 200. A series of dilution of the tubulin dimers was then added into the capillaries. The affinity of the peptide to tubulin dimers was examined using the Monolith NT.115 instrument.
(§2) Tubulin from HeLa cells was purified using a TOG‐based affinity column. ^20 Briefly, cells were resuspended in an equal volume of BRB80 buffer containing 3 μL of benzonase and 1 mM DTT. Cells were lysed on ice and centrifuged at 40 000 rpm for 30 minutes at 4°C. The supernatant was filtered through a 0.45 μm Milliex‐HV polyvinylidene fluoride membrane, and then loaded into a TOG column preequilibrated with BRB80 buffer. The tubulin was eluted with BRB80 buffer, and the crude extract was further purified through the cycle of polymerization and depolymerization as previously described. ^22
Figure 2 Affinity determination of the peptide to tubulin. 1 μM of the peptide and a series dilution of tubulin were added into the capillary tube, and the fluorescence intensity was then determined by a Monolith NT.115 instrument.

[1] = test system: microtubules in HeLa cells; experiment: Living cell assay: tracing of microtubules; format: cell-based; conditions: 15 μM peptide, 30 minutes, Hoechst 33258, fluorescence microscope
Protocol: as §1

polymerized microtubules = experiment: Labeling of polymerized microtubules in solution (fluorescence microscopy); format: binding; conditions: 1 μM peptide added to polymerized rhodamine‐labeled microtubules, five minutes incubation, fluorescence microscope
Protocol: as §2
Rhodamine‐labeled tubulin (5%) was mixed into tubulin purified from HeLa cells in the PEMG buffer (100 mM PIPES, 1 mM EGTA, 1 mM MgSO4, 1 mM GTP, pH 6.8). Next, the mixture was placed on ice for five minutes and then incubated at 37°C for 30 minutes. The polymerized reaction was terminated by adding 400 μL of PEMG buffer. […] The pellet was resuspended with 300 μL of the PEMG buffer supplemented with 20 μM paclitaxel and then added into a slide chamber for imaging under a fluorescence microscope.
Figure 3 The peptide was able to label the microtubules in solution. (a) The tubulin was purified from HeLa cells through cycle process, and the purity was determined by SDS‐PAGE. […] After five minutes incubation, the microtubule was imaged under a fluorescence microscope. […]

[2] = test system: microtubules in living cells; conditions: cited from earlier work; for labeling of microtubules in living cells (in words): microtubule‐targeting agents
From the text: The property of microtubules is regulated by a number of microtubule‐binding proteins, ^8 , ^9 , ^10 , ^11 , ^12 , ^13 of which tau is well‐characterized because of its abundance, particularly in brain tissues. ^14 , ^15 , ^16 The N‐terminus of tau is a projection domain, followed by a proline‐rich region and a C‐terminal microtubule‐assembly domain. ^17 The microtubule‐assembly domain, which contains four imperfect sequence repeats, is responsible for the binding of tau to microtubules. […] In this study, we tested another tau‐derived peptide for its ability to monitor microtubules.

[3] = target: fluorescent tau-derived peptide (FITC-Ahx-(rR)3R2-GGG-KKVAVVR); experiment: MST; 1 μM of the fluorescent peptide constant, a series dilution of tubulin dimers; Monolith NT.115, hydrophobic capillaries

Molecule: KKVAVVRTPP
- microtubule binding (in words) (microtubules; peptide with VxxVxxP motif): able to bind microtubules

Molecule: KKVAVVR
- microtubule binding (in words) (microtubules; small sequence within the proline‐rich region of tau): critical for efficient microtubule binding

- binding to tubulin dimers (in words) (tubulin dimers): specifically bound to tubulin
- disassociation constant (Kd) of the peptide with tubulin (tubulin dimers; Monolith NT.115, hydrophobic capillaries): 4.68 ± 0.08 µM
Molecule: tau‐derived peptide: FITC dye, cell‐penetrating peptide (rR)3R2, spacer (GGG), microtubule recognition unit (KKVAVVR), with aminohexanoic (Ahx) acid ({FITC-Ahx}-[dR]R[dR]R[dR]RRRGGGKKVAVVR)
- entry into living cells (in words) (HeLa cells): delivered successfully into HeLa cells
- binding to tubulin dimers (in words) (tubulin dimers; listed as the peptide): bound tubulin dimers in a dose‐dependent manner; also recorded: relatively low affinity
- tracing of microtubule filaments in living cells (in words) [1]: no clear microtubule filaments were observed
- labeling of microtubules in solution / binding to microtubules (in words) (polymerized microtubules; listed as modified heptapeptide from tau): binds microtubules specifically and noncovalently
- labeling of microtubules in solution / binding to microtubules (in words) (polymerized microtubules; listed as the peptide): able to successfully label the microtubules in solution

Molecule: COc1cc2c(c(OC)c1OC)-c1ccc(OC)c(=O)cc1[C@@H](NC(C)=O)CC2 [colchicine]
- labeling of microtubules in living cells (in words) [2]: able to label microtubules in living cells

Molecule: CC(=O)O[C@H]1C(=O)[C@@]2(C)[C@H]([C@H](OC(=O)c3ccccc3)[C@]3(O)C[C@H](OC(=O)[C@H](O)[C@@H](NC(=O)c4ccccc4)c4ccccc4)C(C)=C1C3(C)C)[C@]1(OC(C)=O)CO[C@@H]1C[C@@H]2O [taxol]
- labeling of microtubules in living cells (in words) [2]: able to label microtubules in living cells

- Kd [3]: 4.68 µM
Molecule: tubulin dimers purified from HeLa cells (from UniProt P68363 1-451; P07437 1-444) (complex)

Molecule: N=C(N)c1ccc(-c2cc3ccc(C(=N)N)cc3[nH]2)cc1 [4',6‐diamidino‐2‐phenylindole (DAPI), 4',6‐diamidino‐2‐phenylindole]
- tracing microtubules in living cells (in words) ([2]; due to the lack of specificity and the complexity of cellular contents): unable to trace microtubules in living cells
